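Five concentrations, 48 hours, 96-well plates. The concentration for 50% growth inhibition is given as GI50. TGI is the concentration that stops growth completely.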
Assays:
Experiment in all cases: NCI-60 cell line screen, 48 h
[1] = system: 786-0 renal
[2] = system: A549 NSCLC
[3] = system: ACHN renal
[4] = system: BT-549 breast
[5] = system: CAKI-1 renal
[6] = system: CCRF-CEM leukemia
[7] = system: COLO 205 colon
[8] = system: DU-145 prostate
[9] = system: EKVX NSCLC
[10] = system: HCC-2998 colon
[11] = system: HCT-116 colon
[12] = system: HCT-15 colon
[13] = system: HL-60(TB) leukemia
[14] = system: HOP-62 NSCLC
[15] = system: HOP-92 NSCLC
[16] = system: HS 578T breast
[17] = system: HT29 colon
[18] = system: IGROV1 ovarian
[19] = system: K-562 leukemia
[20] = system: KM12 colon
[21] = system: LOX IMVI melanoma
[22] = system: MALME-3M melanoma
[23] = system: MCF7 breast
[24] = system: MDA-MB-435
[25] = system: MOLT-4 leukemia
[26] = system: NCI-H23 lung
[27] = system: NCI-H460 lung
[28] = system: NCI-H522 lung
[29] = system: NCI/ADR-RES ovarian
[30] = system: OVCAR-3 ovarian
[31] = system: OVCAR-4 ovarian
[32] = system: OVCAR-5 ovarian
[33] = system: OVCAR-8 ovarian
[34] = system: PC-3 prostate
[35] = system: RPMI-8226 leukemia
[36] = system: RXF 393 renal
[37] = system: SF-268 CNS
[38] = system: SF-295 CNS
[39] = system: SF-539 CNS
[40] = system: SK-MEL-2 melanoma
[41] = system: SK-MEL-28 melanoma
[42] = system: SK-MEL-5 melanoma
[43] = system: SK-OV-3 ovarian
[44] = system: SNB-19 CNS
[45] = system: SNB-75 CNS
[46] = system: SW-620 colon
[47] = system: T-47D breast
[48] = system: TK-10 renal
[49] = system: U251 CNS
[50] = system: UACC-257 melanoma
[51] = system: UO-31 renal
[52] = system: A498 renal
[53] = system: M14 melanoma
[54] = system: NCI-H226 lung
[55] = system: UACC-62 melanoma

Q: Which results are given for `N#Cc1c(-c2ccccc2)n([O-])c2ccccc2[n+]1=O`?
A: GI50 [1]: 35.7 µM; TGI [1]: > 100 µM; GI50 [2]: 22 µM; TGI [2]: 50.9 µM; GI50 [3]: 19.9 µM; TGI [3]: 37.5 µM; GI50 [4]: 25.1 µM; TGI [4]: 57.3 µM; GI50 [5]: 20.1 µM; TGI [5]: 34.7 µM; GI50 [6]: 22.2 µM; TGI [6]: 46.1 µM; GI50 [7]: 35.5 µM; TGI [7]: > 100 µM; GI50 [8]: 22.4 µM; TGI [8]: 51.2 µM; GI50 [9]: 28.2 µM; TGI [9]: 58 µM; GI50 [10]: 17 µM; TGI [10]: 34 µM; GI50 [11]: 19.5 µM; TGI [11]: 34.8 µM; GI50 [12]: 21.4 µM; TGI [12]: 48.3 µM; GI50 [13]: 25.2 µM; TGI [13]: 47.9 µM; GI50 [14]: 20.2 µM; TGI [14]: 38.7 µM; GI50 [15]: 21.8 µM; TGI [15]: 45.4 µM; GI50 [16]: 26.8 µM; TGI [16]: 70 µM; GI50 [17]: 38.8 µM; TGI [17]: > 100 µM; GI50 [18]: 36.9 µM; TGI [18]: > 100 µM; GI50 [19]: 20.6 µM; TGI [19]: 37.1 µM; GI50 [20]: 16.2 µM; TGI [20]: 32.2 µM; GI50 [21]: 18.7 µM; TGI [21]: 35.1 µM; GI50 [22]: 21.3 µM; TGI [22]: 37.1 µM; GI50 [23]: 33.2 µM; TGI [23]: > 100 µM; GI50 [24]: 19.7 µM; TGI [24]: 36.3 µM; GI50 [25]: 10.2 µM; TGI [25]: 27.2 µM; GI50 [26]: 20.3 µM; TGI [26]: 40.3 µM; GI50 [27]: 20.7 µM; TGI [27]: 45.9 µM; GI50 [28]: 26.9 µM; TGI [28]: 75.1 µM; GI50 [29]: 21.1 µM; TGI [29]: 44.8 µM; GI50 [30]: 22.3 µM; TGI [30]: 42.9 µM; GI50 [31]: 28.8 µM; TGI [31]: 81.8 µM; GI50 [32]: 28.1 µM; TGI [32]: 74.2 µM; GI50 [33]: 32.5 µM; TGI [33]: 91.3 µM; GI50 [34]: 26.4 µM; TGI [34]: 79.8 µM; GI50 [35]: 21.1 µM; TGI [35]: 42.2 µM; GI50 [36]: 42.8 µM; TGI [36]: > 100 µM; GI50 [37]: 24.8 µM; TGI [37]: 63.9 µM; GI50 [38]: 24.4 µM; TGI [38]: 56.4 µM; GI50 [39]: 32.1 µM; TGI [39]: 60.8 µM; GI50 [40]: 62.6 µM; TGI [40]: > 100 µM; GI50 [41]: 65.7 µM; TGI [41]: > 100 µM; GI50 [42]: 20.1 µM; TGI [42]: 38.5 µM; GI50 [43]: 51.7 µM; TGI [43]: > 100 µM; GI50 [44]: 67.1 µM; TGI [44]: > 100 µM; GI50 [45]: 41.1 µM; TGI [45]: > 100 µM; GI50 [46]: 35.3 µM; TGI [46]: > 100 µM; GI50 [47]: 30.1 µM; TGI [47]: 83.7 µM; GI50 [48]: 29.4 µM; TGI [48]: 68.4 µM; GI50 [49]: 24.7 µM; TGI [49]: 60.7 µM; GI50 [50]: 21.4 µM; TGI [50]: 40.1 µM; GI50 [51]: 33.9 µM; TGI [51]: > 100 µM

Q: How did the TGI [52] turn out when `O=C(CSCC(=O)N/N=C/c1cccc(C(F)(F)F)c1)N/N=C/c1cccc(C(F)(F)F)c1` was run?
A: > 100 µM

Q: What about the TGI [3] of the same molecule?
A: > 100 µM

Q: And the TGI [4]?
A: > 100 µM

Q: What about the TGI [5] of the same molecule?
A: > 100 µM

Q: What about the TGI [8] of the same molecule?
A: > 100 µM

Q: What about the TGI [9] of the same molecule?
A: > 100 µM

Q: And the TGI [10]?
A: > 100 µM

Q: And the TGI [12]?
A: > 100 µM

Q: What about the TGI [13] of the same molecule?
A: > 100 µM

Q: And the TGI [14]?
A: > 100 µM

Q: And the TGI [15]?
A: > 100 µM

Q: What about the TGI [16] of the same molecule?
A: > 100 µM

Q: What about the TGI [17] of the same molecule?
A: > 100 µM

Q: What about the TGI [18] of the same molecule?
A: > 100 µM

Q: What about the TGI [19] of the same molecule?
A: > 100 µM

Q: What about the TGI [21] of the same molecule?
A: > 100 µM

Q: What about the TGI [53] of the same molecule?
A: > 100 µM

Q: What about the TGI [22] of the same molecule?
A: > 100 µM

Q: What about the TGI [23] of the same molecule?
A: > 100 µM

Q: And the TGI [24]?
A: > 100 µM

Q: What about the TGI [54] of the same molecule?
A: > 100 µM

Q: What about the TGI [26] of the same molecule?
A: > 100 µM

Q: And the TGI [28]?
A: > 100 µM

Q: What about the TGI [29] of the same molecule?
A: > 100 µM

Q: And the TGI [32]?
A: > 100 µM

Q: What about the TGI [34] of the same molecule?
A: > 100 µM

Q: What about the TGI [36] of the same molecule?
A: > 100 µM

Q: And the TGI [37]?
A: > 100 µM

Q: And the TGI [38]?
A: > 100 µM

Q: And the TGI [39]?
A: > 100 µM

Q: And the TGI [40]?
A: > 100 µM

Q: And the TGI [41]?
A: > 100 µM

Q: What about the TGI [42] of the same molecule?
A: > 100 µM

Q: And the TGI [43]?
A: > 100 µM

Q: What about the TGI [44] of the same molecule?
A: > 100 µM

Q: And the TGI [45]?
A: > 100 µM

Q: And the TGI [47]?
A: > 100 µM

Q: What about the TGI [48] of the same molecule?
A: > 100 µM

Q: And the TGI [50]?
A: > 100 µM

Q: And the TGI [55]?
A: > 100 µM

Q: And the TGI [51]?
A: > 100 µM

Reference: PubChem BioAssay (NCI)
